Measurements published in US10209240B2, “Predicting human developmental toxicity of pharmaceuticals using human stem-like cells and metabolomic ratios” (STEMINA BIOMARKER DISCOVERY, INC., priority 2012, dated 2019).
Read-outs that look alike come from different tables or passages of the source. Blank lines part the entries; values can stand above or below the molecule they belong to.

Key:
[1] = summarized from TERIS and Briggs et al. 2011, cited from earlier work; for Preclinical in vivo developmental effects: application set compounds; for Preclinical in vivo and known human developmental effects: test set compounds
[2] = system: Rodent; settings: cited from earlier work; for Rodent in vivo test results: Embryotoxic: embryotoxic effect in the absence of teratogenic effects and maternal toxicity; for Rodent in vivo test results: Teratogenic: structural malformations in the absence of maternal toxicity; for Rodent developmental toxicity testing, result in words: relation to maternal toxicity where stated
[3] = system: WA09 hES cells; assay: Phase 2 targeted biomarker assay, ornithine/cystine ratio, 9-point dose response; settings: for Teratogenicity Potential (μM) O/C Ratio: human, 72 h
From the text: Undifferentiated hES Cell Line Maintenance (Phases 1 and 2). WA09 hES cells were obtained from the WiCell Research Institute (Madison, Wis.) and were maintained in feeder free conditions using mTeSR1 media (StemCell Technologies, Inc., Vancouver, BC, Canada) on hESC-qualified Matrigel (BD Biosciences, San Jose, Calif.) coated 6-well plates. To maintain the undifferentiated stem cell population, differentiated colonies were removed daily through aspiration and media was replaced. Additionally, the hES cells were only used in experiments up to passage 40 and were karyotyped approximately every 10 passages to minimize and monitor the potential for genetic instability. hES cells were passaged at 90-95% confluency (approximately every 7 days) using Versene (Life Technologies, Grand Island, N.Y.). Cell cultures were maintained at 37° C. under 5% CO2.
96-well hES Cell Plating (Phases 1 and 2). All experimental treatments were carried out in 96-well plates. To minimize plating variability and increase reproducibility, hES cells were plated as a single cell suspension and maintained in an undifferentiated state during compound exposure. Prior to plating in the 96-well plates, hES cells were removed from a 6-well plate using TrypLE (Life Technologies). The cells were washed with DMEM/F12 (Life Technologies) and resuspended in mTeSR1 containing 10 μM Y27632 Rho-associated kinase (ROCK) inhibitor (Merck KGaA/Calbiochem, Darmstadt, Germany). The ROCK inhibitor is added to the plating media to increase plating efficiency by decreasing dissociation-induced apoptosis. The inner 60 wells of hESC-qualified Matrigel coated 96-well plates were seeded at a density of 100,000 cells per well. The outer wells of the plate contained an equal volume media to minimize differences in humidity across the plate. Compound exposure began 24 hours after plating.
(§1) Phase 2 hES Cell Compound Exposure. […] The standard compound exposure levels used for most compounds were nine, 3-fold dilutions ranging from 0.04 μM-300 μM (FIG. 1B). […] The stock solution was diluted 1:1000 in mTeSR1 media and subsequent dilutions were performed in mTeSR1 containing 0.1% DMSO such that the final concentration of DMSO was 0.1% in all treatments. hES cells were treated for 72 hours and spent media from the last 24-hour treatment period was collected and added to acetonitrile containing ^13C6 labeled arginine (Cambridge Isotope Laboratories, Andover, Md.) as described under Phase 1. Spent media samples were stored at −80° C. until prepared for LC-HRMS analysis. Cell viability was assessed using the CellTiter-Fluor Cell Viability Assay. A quality control step was included with criteria that the CV of the measured viability RFU of the DMSO control cells could not exceed 10% for a plate to undergo LC-HRMS analysis. A dose response curve was fit to the reference treatment (0.1% DMSO treated control cells) normalized data (Viability RFUTrt X/Viability RFUDMSO) using a four-parameter log-logistic model with the R package “drc” (Ritz and Streibig, 2005, J Statistical Software; 12:1-22).
Sample Preparation (Phases 1 and 2). High molecular weight constituents (>10 KDa) of the spent media samples were removed using a Millipore Multiscreen Ultracel-10 filter plate (EMD Millipore, Billerica, Mass.). Prior to sample filtration, the filter plate was washed with 0.1% NaOH to remove a known contaminant polymer. The plate was then rinsed twice with HPLC-grade water to remove residual polymers and NaOH. Spent media samples were added to the washed filter plate. In Phase 1, samples were spiked with ^13C6 labeled arginine. Samples were centrifuged at 2,000×g at 4° C. for 200 minutes. The filtrate was collected and concentrated overnight in a Savant High Capacity Speedvac Plus Concentrator.

[4] = cited from earlier work
[5] = system: Rabbit; settings: cited from earlier work
[6] = system: WA09 hES cells
Procedure: Phase I hES Cell Compound Exposure. hES cells were treated with a test compound at a single concentration equivalent to the compound's published therapeutic Cmax. […] This was done to ensure that enough cells were present at the time of sample collection to provide a signal for LC-HRMS analysis. For test compound exposure, all compound stock solutions, with the exception of valproic acid, were made with DMSO (Sigma-Aldrich). […] Each 96-well plate included media controls with and without test compound, 0.1% DMSO solvent control cells and cells exposed to a single concentration of eight different test compounds (FIG. 1A). Media controls were included on each plate to assess the impact of test compound on the sample matrix. hES cells were exposed to the test compound for 72 hours, with media and test compound replacement every 24 hours. Cells were monitored throughout the treatment period to ensure that no differentiation was occurring. After 72 hours of treatment, the spent media from the final 24-hour treatment period was collected and added to acetonitrile (Sigma-Aldrich, final acetonitrile concentration 40%), to halt metabolic processes and precipitate proteins from solution. Individual wells from each 96-well plate were collected and analyzed as separate samples. These samples were then stored at −80° C. until prepared for LC-HRMS analysis. Cell viability was assessed using the CellTiter-Fluor Cell Viability Assay as per the manufacturer's instructions (Promega, Madison, Wis.). Quality control parameters were set such that if the coefficient of variation (CV) for the viability relative fluorescent units (RFU) of the 6 cellular samples in a treatment exceeded 10% and no outliers were identified using the Grubb's test (see the worldwide web at graphpad.com/quickcalcs/Grubbs1.cfm), analysis was halted for that compound and the cell culture experiment was repeated. If outliers were present, the outlier sample was removed from analysis. If the CV for the DMSO control cell samples on a plate were outside of the quality control parameters, the entire plate was repeated. hES cell exposure to each of the 23 compounds was replicated a total of nine times.
as §1
Phase 2 Prediction of Developmental Toxicity Potential. […] FIG. 2 illustrates how the assay is applied in this situation. A test compound is considered to be teratogenic at the exposure level where the o/c ratio exceeds the teratogenicity threshold (red box, FIG. 2).

[7] = system: Humans; settings: cited from earlier work
[8] = application set, peak plasma concentration in humans
[9] = test set, therapeutic peak plasma in vivo concentration, human

SMILES: Nc1nc(NC2CC2)c2ncn([C@H]3C=C[C@@H](CO)C3)c2n1 [Abacavir]
Preclinical in vivo developmental effects [1]: Skeletal, embryo toxicity^c
Rodent prediction ([2]; application set): TER
Rodent in vivo test results: Embryotoxic ([2]; application set): +
Rodent in vivo test results: Teratogenic ([2]; application set): +
Targeted Biomarker Assay prediction [3]: NON
Teratogenicity Potential (μM) O/C Ratio [3]: 95.1 µM
Cmax [4, 8]: 14.9 µM
Rabbit prediction ([5]; application set): NON
Teratogenicity Potential (μM) Cell Viability ([6]; human, 72 h): 94.1 µM

SMILES: Nc1nc2c(ncn2COCCO)c(=O)[nH]1 [Acycloguanosine]
Humans (known human developmental toxicity) ([7]; training and test set): NON
Targeted Biomarker Assay prediction [3]: NON
Cmax [4, 9]: 3 µM
Teratogenicity Potential (μM) Cell Viability ([6]; human, 72 h): >300 µM
Viability Prediction ([6]; test set, teratogenicity potential scored against therapeutic Cmax): NON

SMILES: CC(C)(C)C(=O)OCOP(=O)(COCCn1cnc2c(N)ncnc21)OCOC(=O)C(C)(C)C [Adefovir dipivoxil]
Rodent developmental toxicity testing, result in words [2]: only embryotoxic at exposure levels that also caused maternal toxicity
Targeted Biomarker Assay prediction [3]: TER
Cmax [4, 8]: 0.03 µM
Teratogenicity Potential (μM) Cell Viability ([6]; application set, interpolated concentration where cell viability dose response curve crosses teratogenicity threshold 0.88, 72 hours): 0.02 µM

SMILES: CC(C)CN(C[C@@H](O)[C@H](Cc1ccccc1)NC(=O)O[C@H]1CCOC1)S(=O)(=O)c1ccc(N)cc1 [Amprenavir]
Preclinical in vivo developmental effects [1]: Skeletal, embryo toxicity^c
Rodent prediction ([2]; application set): TER
Rodent in vivo test results: Embryotoxic ([2]; application set): +
Rodent in vivo test results: Teratogenic ([2]; application set): +
Targeted Biomarker Assay prediction [3]: NON
Teratogenicity Potential (μM) O/C Ratio [3]: 236.9 µM
Cmax [4, 8]: 15.1 µM
Rabbit prediction ([5]; application set): TER
Teratogenicity Potential (μM) Cell Viability ([6]; human, 72 h): 259.5 µM

Targeted Biomarker Assay prediction [3]: TER
SMILES: C[C@H]1[C@H](OC(=O)CCC(=O)O)O[C@@H]2O[C@@]3(C)CC[C@H]4[C@H](C)CC[C@@H]1[C@@]24OO3 [Artesunate]
Cmax [4, 8]: 73.9 µM
Teratogenicity Potential (μM) Cell Viability ([6]; human, 72 h): 0.58 µM

O/C Ratio Prediction [3]: NON
Targeted Biomarker Assay prediction [3]: NON
SMILES: COc1ccccc1Oc1c(NS(=O)(=O)c2ccc(C(C)(C)C)cc2)nc(-c2ncccn2)nc1OCCO [Bosentan]
Preclinical in vivo and known human developmental effects [1]: Craniofacial,
Humans (known human developmental toxicity) ([7]; training and test set): TER
Rodent prediction ([2]; training and test set): TER
Teratogenicity Potential (μM) O/C Ratio [3]: 44.9 µM
Cmax [4, 9]: 2 µM
Rabbit prediction ([5]; training and test set): NON
Viability Prediction [6]: NON
Teratogenicity Potential (μM) Cell Viability ([6]; human, 72 h): 221.9 µM

SMILES: Cn1c(=O)c2c(ncn2C)n(C)c1=O [Caffeine]
Humans (known human developmental toxicity) ([7]; in vivo): NON
Cmax ([4]; training set, therapeutic peak plasma in vivo concentration, human): 9.3 µM
Teratogenicity Potential (μM) Cell Viability ([6]; human, 72 h): >300 µM

Targeted Biomarker Assay prediction [3]: TER
SMILES: Nc1ccn(C[C@@H](CO)OCP(=O)(O)O)c(=O)n1 [Cidofovir]
Preclinical in vivo developmental effects [1]: None
Rodent prediction ([2]; application set): NON
Rodent developmental toxicity testing, result in words [2]: only embryotoxic at exposure levels that also caused maternal toxicity
Teratogenicity Potential (μM) O/C Ratio [3]: 0.3 µM
Cmax [4, 8]: 41.2 µM
Rabbit prediction ([5]; application set): NON
Teratogenicity Potential (μM) Cell Viability ([6]; human, 72 h): 1.9 µM

Targeted Biomarker Assay prediction [3]: TER
SMILES: CCN(CC)C(=O)/C(C#N)=C/c1cc(O)c(O)c([N+](=O)[O-])c1 [Entacapone]
Preclinical in vivo developmental effects [1]: Eye defects
Rodent prediction ([2]; application set): TER
Rodent in vivo test results: Teratogenic ([2]; application set): +
Teratogenicity Potential (μM) O/C Ratio [3]: 6.7 µM
Cmax [4, 8]: 3.9 µM
Rabbit prediction ([5]; application set): NON
Teratogenicity Potential (μM) Cell Viability ([6]; human, 72 h): 127 µM

O/C Ratio Prediction [3]: TER
Targeted Biomarker Assay prediction [3]: TER
SMILES: CO[C@H]1C[C@@H]2CC[C@@H](C)[C@@](O)(O2)C(=O)C(=O)N2CCCC[C@H]2C(=O)O[C@H]([C@H](C)C[C@@H]2CC[C@@H](OCCO)[C@H](OC)C2)CC(=O)[C@H](C)/C=C(\C)[C@@H](O)[C@@H](OC)C(=O)[C@H](C)C[C@H](C)/C=C/C=C/C=C/1C [Everolimus]
Preclinical in vivo and known human developmental effects [1]: Skeletal, embryo toxicity^c
Humans (known human developmental toxicity) ([7]; training and test set): TER
Rodent prediction ([2]; training and test set): TER
Classification by o/c ratio in the targeted biomarker assay [3]: classified as a teratogen
Teratogenicity Potential (μM) O/C Ratio [3]: <0.04 µM
Cmax [4, 9]: 0.02 µM
Rabbit prediction ([5]; training and test set): NON
Viability Prediction [6]: NON
Teratogenicity Potential (μM) Cell Viability ([6]; human, 72 h): 5.2 µM

Targeted Biomarker Assay prediction [3]: NON
SMILES: CCC(=O)NCC[C@@H]1CCc2ccc3c(c21)CCO3 [Ramelteon]
Preclinical in vivo developmental effects [1]: None
Rodent prediction ([2]; application set): NON
Rodent developmental toxicity testing, result in words [2]: only embryotoxic at exposure levels that also caused maternal toxicity
Teratogenicity Potential (μM) O/C Ratio [3]: 34 µM
Cmax [4, 8]: 0.02 µM
Rabbit prediction ([5]; application set): NON
Teratogenicity Potential (μM) Cell Viability ([6]; human, 72 h): >300 µM

O/C Ratio Prediction [3]: NON
Targeted Biomarker Assay prediction [3]: NON
SMILES: N[C@@H](CC(=O)N1CCn2c(nnc2C(F)(F)F)C1)Cc1cc(F)c(F)cc1F [Sitagliptin]
Preclinical in vivo and known human developmental effects [1]: Low doses: None; High
Humans (known human developmental toxicity) ([7]; training and test set): NON
Rodent prediction ([2]; training and test set): TER
Teratogenicity Potential (μM) O/C Ratio [3]: 22.6 µM
Cmax [4, 9]: 0.95 µM
Rabbit prediction ([5]; training and test set): NON
Viability Prediction [6]: NON
Teratogenicity Potential (μM) Cell Viability ([6]; human, 72 h): >300 µM
